Reference: patent US10028970B2, “Composition comprising cashew apple extract” (NATUREX, priority 2011, dated 2018)

Assay: Thermal degradation kinetics of CAE in water at 100° C. (HPLC)
Assay type: physicochemical
Conditions: CAE 50 g/L in deionised water
Experimental: The thermal degradation kinetics of CAE in water was investigated at 100° C. CAE was dissolved in deionised water at the concentration of 50 g/L and the solution was well homogenized. Volumes of 4 ml of this solution were placed in glass tubes, sealed, and placed in a mineral oil bath at 100° C. At predetermined intervals: 0, 10, 20, 30, 45, 60, 90, and 120 min, sample tubes were removed from the mineral oil bath and rapidly cooled in ice. For the analysis, 1 ml of each sample was mixed with 4 ml of HPLC grade methanol, homogenized, and filtrated on 0.45 μm HPLC filter. Then, 20 μL of the solution was analyzed in HPLC. The phytochemical composition of the samples was measured by reversed phase liquid chromatography using a C-18 column (ACE, 250×4.6 mm, 5 μm) at 280 nm. The areas under peak of the major components of CAE were measured in the different samples representing different time points of at 100° C.

**Q.** Which “incubation time after which the amount in the extract was divided by 2” value does the source give for O=C(/C=C/c1ccccc1)O[C@@H]1O[C@H](CO)[C@@H](O)[C@H](O)[C@H]1O (relative stereo) [1-O-trans-cinnamoyl-beta-D-glucoside, 1-O-trans-cinnamoyl-beta-D-glucopyranose] here?
**A.** 30 min

**Q.** What about the “amount remaining in the extract after 120 min of incubation” value (120 min) of the same compound?
**A.** almost completely disappeared from the extract
